Data from US9975852B2, “Quinoline sulfonyl derivatives and uses thereof” (Health Sciences North Research Institute, priority 2013, dated 2018).
Entries after “also recorded” stand apart in the source; their conditions may differ.

What was measured:
[1] = test system: Jurkat; assay: SRB antiproliferative assay, Jurkat; assay type: cell-based; conditions: Homo sapiens
Description: Antiproliferative effects were determined by a sulforhodamine B (SRB) based protocol. For a typical screening experiment, 5,000-10,000 cells were inoculated into 100 μl medium per well of a 96-well microtiter plate as described previously. Briefly, after the inoculation, the microtiter plate was incubated at 37° C., 5% CO2, 95% air and 100% relative humidity for 24 h, prior to addition of experimental drugs. Some of the sample wells were fixed with 25 μl of 50% trichloroacetic acid (TCA) as a control of the cell population for each cell line at the time of drug addition (Tz). An aliquot of the frozen stock was thawed and diluted to the desired final maximum test-concentration with complete medium. […] The cells “stained” with SRB were solubilized with 10 mM trizma base, and the absorbance was read on an automated plate reader at a wavelength of 515-564 nm. The relative growth rate (%) was calculated for each of the compound concentrations according to the following formula: (Ti−Tz)/(C−Tz)×100 In the formula, time zero (Tz), control growth (C), and OD for different concentration of tested compounds (Ti). […] Values were calculated for each of these parameters if the level of activity was reached. However, if the effect was not reached or was exceeded, the value for that parameter was expressed as greater or less than the maximum or minimum concentration tested. […]

[2] = test system: 20S proteasome; assay: 20S proteasome activity in HeLa S3 cell lysates; assay type: biochemical; conditions: 1 μM VR-23
Description: Exponentially growing HeLa S3 cells were plated on 96-well plates. After overnight incubation, the cells were treated with different concentrations of drugs for 6 hours or left untreated (control). At the end of 6 hours, proteasomes were extracted in 0.5% NP40 buffer, and equal amounts of samples were incubated with 25 μM of fluorogenic substrates purchased from Boston Biochem (Cambridge Mass.). (LRR-specific for trypsin-like activity, LLE-specific for caspase-like activity and SUVY-specific for chymotrypsin like activity) in black-bottom 96-well plates at 37° C. Fluorescence was monitored every 5 min at the wavelength of 360 nm (excitation) and 480 nm (emission). Chymotrypsin activity was also determined by a kit-based method (similar to described above) purchased from Caymen Biochem (Ann Arbor, Mich.), using a fluorogenic substrate specific for chymotrypsin activity.
Analysis of proteasome activity in HeLa S3 cell lysates treated with various compounds (FIG. 10). VR-23 inhibits proteasome activity. 20S proteasome activity was inhibited by 1 μM VR-23. MG132 and EGCG, known proteasome inhibitors, were used as positive controls. The PC positive control is cell lysates prepared from Jurkat cells with a high proteasome activity. “Asynchr” denote asynchronous HeLa S3 cells grown in the absence of VR-23.

Q: Which results are given for `O=[N+]([O-])c1ccc(S(=O)(=O)N2CCN(c3ccnc4cc(Cl)ccc34)CC2)c([N+](=O)[O-])c1` [Compound 1, 7-Chloro-4-(4-(2,4-dinitrophenylsulfonyl)piperazin-1-yl)quinoline]?
A: IC50 [1]: 800 ± 100 nM; 20S proteasome activity [2]: inhibited; also recorded: almost completely inhibits
